Here are results for ten molecules from US5486601A, “Trisazo dye, and aqueous ink composition containing the same” (priority 1993, dated 1996).

Where two headings read alike, the source gives them in different places.

The nature of data set [1]: Solubility of dye (Na salt) in water. In kind it is physicochemical. How it is done:
Evaluation Method of Solubility of Dye
A Na salt (2 g) of the resulting dye was dissolved in water (10 g), and the dye solution was filtered and concentrated/dried to determine a solubility (g of dye/100 g of water) of the dye.

Data set [2] can be described thus: AMES test (reverse mutagenicity test), strain TA98, with and without S-9. In kind it is cell-based. The conditions noted are these: read-out: magnification of the total number of the mutant colony to the control. How it is done: (§1) Regarding specimen solutions containing the trisazo compounds (dyes) of the present invention obtained in Examples 1 to 9 and dyes of Comparative Examples 1 to 3, respectively, the total number of the mutant colony was determined using the strain TA98. When the resulting magnification is not more than 2, it is evaluated as "negative". On the other hand, when the resulting magnification is not less than 2, it is evaluated as "positive".
(§2) In Table 1, the modification in case that no drug-metabolizing active enzyme S-9 is added is shown in the column "-" and the modification in case that a drug-metabolizing active enzyme S-9 is added is shown in the column "+".

The test system of data set [3] is strain TA98. The description is as above. Format: cell-based. The conditions noted are these: TA98, with and without S9, 20 to 5000 μg/plate. The procedure: as §1, §2
The conditions of data set [4]: background statement on known dyes; cited from earlier work.
Where [5] appears, read: s9, TA98, with S9, 313 μg/plate.
The mark [6] stands for this setting: s9, TA98, with S9, 1250 μg/plate.
[7] abbreviates: s9, TA98, with S9, 5000 μg/plate.
Where [8] appears, read: s9, TA98, without S9, 20 μg/plate.
Where [9] appears, read: s9, TA98, without S9, 78 μg/plate.
[10] abbreviates: s9, TA98, without S9, 313 μg/plate.
The mark [11] stands for this setting: s9, TA98, without S9, 1250 μg/plate.
Where [12] appears, read: s9, TA98, without S9, 5000 μg/plate.

For the molecule `Nc1ccc(N=Nc2ccc(C3(c4ccc(N=Nc5c(S(=O)(=O)O)cc6cc(S(=O)(=O)O)c(N=Nc7ccccc7)c(O)c6c5N)cc4)CCCCC3)cc2)c(O)c1` [Example 4], the “Solubility Dye(g)/water (100 g)” value in data set [1] is on record as 15 g of dye/100 g of water. The “Solubility Evaluation” value in data set [1] is reported as “.circleincircle. (solubility is not less than 15)”. The fold induction in data set [2] (s9, TA98, with S9, 20 μg/plate) was determined as 1.44; in data set [2] (s9, TA98, with S9, 78 μg/plate), 1.4; in data set [2] (setting [5]), 1.08; in data set [2] (setting [6]) it was 1.16; in data set [2] (setting [7]), 0.96; in data set [2] (setting [8]), 1. The fold induction came out at 0.93 in data set [2] (setting [9]), 1.07 in data set [2] (setting [10]), 0.87 in data set [2] (setting [11]) and 0.93 in data set [2] (setting [12]). For the same molecule, in data set [3], the “AMES Evaluation” value is reported as “Negative (When the resulting magnification is not more than 2, it is evaluated as "negative")”.
As for `CCCCc1ccc(N=Nc2c(S(=O)(=O)O)cc3cc(S(=O)(=O)O)c(N=Nc4ccc(C5(c6ccc(N=Nc7ccc(O)cc7O)cc6)CCCCC5)cc4)c(N)c3c2O)cc1` [Example 2], the “Solubility Dye(g)/water (100 g)” value in data set [1] is recorded as 15 g of dye/100 g of water. The “Solubility Evaluation” value in data set [1] is reported as “.circleincircle. (solubility is not less than 15)”. Besides, the fold induction in data set [2] (s9, TA98, with S9, 20 μg/plate) was 1.09; in data set [2] (s9, TA98, with S9, 78 μg/plate), 1.09; in data set [2] (setting [5]), 0.55; in data set [2] (setting [6]), 0.55; in data set [2] (setting [7]), 0.42; in data set [2] (setting [8]), 0.78. Moreover, the fold induction in data set [2] (setting [9]) came to 0.7; in data set [2] (setting [10]), 0.61; in data set [2] (setting [11]), 0.39; in data set [2] (setting [12]), 0.3. Besides, in data set [3], the “AMES Evaluation” value is “Negative (When the resulting magnification is not more than 2, it is evaluated as "negative")”.
Turning to “C.I. Direct Black 168 [Comparative Example 3, reference compound]”, in data set [1], the “Solubility Dye(g)/water (100 g)” value is 20 g of dye/100 g of water and the “Solubility Evaluation” value is “.circleincircle. (solubility is not less than 15)”. In addition, in data set [4], the “results of AMES test” value is on record as “false positive or positive”.
`CCCCc1ccc(N=Nc2c(S(=O)(=O)O)cc3cc(S(=O)(=O)O)c(N=Nc4ccc(C5(c6ccc(N=Nc7ccc(N(C)C)cc7C(=O)O)cc6)CCCCC5)cc4)c(N)c3c2O)cc1` [Example 8]: the “Solubility Dye(g)/water (100 g)” value in data set [1] is reported as 15 g of dye/100 g of water. Further, in data set [1], the “Solubility Evaluation” value was “.circleincircle. (solubility is not less than 15)”. Further, the fold induction in data set [2] (s9, TA98, with S9, 20 μg/plate) stood at 1.13; in data set [2] (s9, TA98, with S9, 78 μg/plate), 0.94; in data set [2] (setting [5]), 1.06; in data set [2] (setting [6]) it was 0.53; in data set [2] (setting [7]) it was 0.59; in data set [2] (setting [8]), 0.76. Further, the fold induction in data set [2] (setting [9]) worked out at 0.86; in data set [2] (setting [10]) it was 0.86; in data set [2] (setting [11]), 0.76; in data set [2] (setting [12]), 0.71. Besides, in data set [3], the “AMES Evaluation” value is on record as “Negative (When the resulting magnification is not more than 2, it is evaluated as "negative")”.
Consider `Cc1ccc(N=Nc2c(S(=O)(=O)O)cc3cc(S(=O)(=O)O)c(N=Nc4ccc(C5(c6ccc(N=Nc7ccc(N)cc7O)cc6)CCCCC5)cc4)c(N)c3c2O)cc1` [Example 6], for which, in data set [1], the “Solubility Dye(g)/water (100 g)” value is 15 g of dye/100 g of water. In addition, in data set [1], the “Solubility Evaluation” value is “.circleincircle. (solubility is not less than 15)”. The fold induction in data set [2] (s9, TA98, with S9, 20 μg/plate) is 1.38; in data set [2] (s9, TA98, with S9, 78 μg/plate), 1.43; in data set [2] (setting [5]), 0.95; in data set [2] (setting [6]), 0.68; in data set [2] (setting [7]), 0.65; in data set [2] (setting [8]), 1.19. The fold induction in data set [2] (setting [9]) was 1.22; in data set [2] (setting [10]), 1.48; in data set [2] (setting [11]), 1.3; in data set [2] (setting [12]), 1.15. Moreover, the “AMES Evaluation” value in data set [3] is recorded as “Negative (When the resulting magnification is not more than 2, it is evaluated as "negative")”.
With `CCCCc1ccc(N=Nc2c(S(=O)(=O)O)cc3cc(S(=O)(=O)O)c(N=Nc4ccc(C5(c6ccc(N=Nc7ccc(N)cc7O)cc6)CCCCC5)cc4)c(N)c3c2O)cc1` [Example 1], in data set [1], the “Solubility Dye(g)/water (100 g)” value is listed as 12 g of dye/100 g of water. Also, the “Solubility Evaluation” value in data set [1] is “.smallcircle. (solubility is within a range from 10 to 15)”. Further, the fold induction in data set [2] (s9, TA98, with S9, 20 μg/plate) is 1.21; in data set [2] (s9, TA98, with S9, 78 μg/plate) it was 1.03; in data set [2] (setting [5]), 0.9; in data set [2] (setting [6]) it was 0.63; in data set [2] (setting [7]) it was 0.69; in data set [2] (setting [8]) it was 0.91. The fold induction in data set [2] (setting [9]) was found to be 0.86; in data set [2] (setting [10]), 0.91; in data set [2] (setting [11]), 0.95; in data set [2] (setting [12]) it was 0.5. Also, the “AMES Evaluation” value in data set [3] is listed as “Negative (When the resulting magnification is not more than 2, it is evaluated as "negative")”.
On to `CCCCc1ccc(N=Nc2c(S(=O)(=O)O)cc3cc(S(=O)(=O)O)c(N=Nc4ccc(C5(c6ccc(N=Nc7ccc(N(C)C)cc7O)cc6)CCCCC5)cc4)c(N)c3c2O)cc1` [Example 9], for which the “Solubility Dye(g)/water (100 g)” value in data set [1] is reported as 12 g of dye/100 g of water. Also, the “Solubility Evaluation” value in data set [1] is recorded as “.smallcircle. (solubility is within a range from 10 to 15)”. Also, the fold induction in data set [2] (s9, TA98, with S9, 20 μg/plate) amounted to 1.15; in data set [2] (s9, TA98, with S9, 78 μg/plate), 1.37; in data set [2] (setting [5]) it was 0.77; in data set [2] (setting [6]) it was 0.41; in data set [2] (setting [7]), 0.59; in data set [2] (setting [8]), 0.77. The fold induction in data set [2] (setting [9]) amounted to 0.73; in data set [2] (setting [10]), 0.58; in data set [2] (setting [11]), 0.38; in data set [2] (setting [12]) it was 0.54. The “AMES Evaluation” value in data set [3] is “Negative (When the resulting magnification is not more than 2, it is evaluated as "negative")”.
As to `CCCCc1ccc(N=Nc2c(S(=O)(=O)O)cc3cc(S(=O)(=O)O)c(N=Nc4ccc(C5(c6ccc(N=Nc7ccc(N(CC)CC)cc7C)cc6)CCCCC5)cc4)c(N)c3c2O)cc1` [Example 7], in data set [1], the “Solubility Dye(g)/water (100 g)” value is given as 12 g of dye/100 g of water. Further, the “Solubility Evaluation” value in data set [1] was “.smallcircle. (solubility is within a range from 10 to 15)”. Moreover, the fold induction in data set [2] (s9, TA98, with S9, 20 μg/plate) amounted to 1.03; in data set [2] (s9, TA98, with S9, 78 μg/plate), 0.92; in data set [2] (setting [5]) it was 0.81; in data set [2] (setting [6]), 1.08; in data set [2] (setting [7]), 1.03; in data set [2] (setting [8]) it was 1.05. In addition, the fold induction turned out to be 1.1 in data set [2] (setting [9]), 0.9 in data set [2] (setting [10]), 0.62 in data set [2] (setting [11]) and 1.1 in data set [2] (setting [12]). For the same molecule, the “AMES Evaluation” value in data set [3] is listed as “Negative (When the resulting magnification is not more than 2, it is evaluated as "negative")”.
With `CC(C)c1ccc(N=Nc2c(S(=O)(=O)O)cc3cc(S(=O)(=O)O)c(N=Nc4ccc(C5(c6ccc(N=Nc7ccc(N)cc7O)cc6)CCCCC5)cc4)c(N)c3c2O)cc1` [Example 5], the “Solubility Dye(g)/water (100 g)” value in data set [1] is on record as 13 g of dye/100 g of water. For the same molecule, the “Solubility Evaluation” value in data set [1] is on record as “.smallcircle. (solubility is within a range from 10 to 15)”. Besides, the fold induction in data set [2] (s9, TA98, with S9, 20 μg/plate) was 1.77; in data set [2] (s9, TA98, with S9, 78 μg/plate), 1.27; in data set [2] (setting [5]) it was 1.41; in data set [2] (setting [6]) it was 1.45; in data set [2] (setting [7]), 1.05; in data set [2] (setting [8]) it was 0.9. Besides, the fold induction was 0.76 in data set [2] (setting [9]), 1.07 in data set [2] (setting [10]), 0.83 in data set [2] (setting [11]) and 0.48 in data set [2] (setting [12]). Also, the “AMES Evaluation” value in data set [3] was “Negative (When the resulting magnification is not more than 2, it is evaluated as "negative")”.
Regarding `CCC(C)c1ccc(N=Nc2c(S(=O)(=O)O)cc3cc(S(=O)(=O)O)c(N=Nc4ccc(C5(c6ccc(N=Nc7ccc(N)cc7O)cc6)CCCCC5)cc4)c(N)c3c2O)cc1` (stereo not drawn) [Example 3], the “Solubility Dye(g)/water (100 g)” value in data set [1] is 12 g of dye/100 g of water. The “Solubility Evaluation” value in data set [1] was “.smallcircle. (solubility is within a range from 10 to 15)”. The fold induction came out at 0.81 in data set [2] (s9, TA98, with S9, 20 μg/plate); 1.31 in data set [2] (s9, TA98, with S9, 78 μg/plate); 1 in data set [2] (setting [5]); 0.56 in data set [2] (setting [6]); 0.69 in data set [2] (setting [7]); 0.81 in data set [2] (setting [8]). Besides, the fold induction in data set [2] (setting [9]) came out at 0.5; in data set [2] (setting [10]), 0.5; in data set [2] (setting [11]), 0.5; in data set [2] (setting [12]), 0.69. Also, the “AMES Evaluation” value in data set [3] is listed as “Negative (When the resulting magnification is not more than 2, it is evaluated as "negative")”.
